Results: US7902373B2 (Pfizer Inc, priority 2006, dated 2011)
pIC50: −log10 of the molar value.

biological target: human recombinant H-PGDS (Homo sapiens, UniProt O60760); test: Fluorescence intensity h-PGDS TBA enzyme assay; format: biochemical; conditions: Examples up to 622 (and 3a, 3b)
Sequence (O60760 whole entry): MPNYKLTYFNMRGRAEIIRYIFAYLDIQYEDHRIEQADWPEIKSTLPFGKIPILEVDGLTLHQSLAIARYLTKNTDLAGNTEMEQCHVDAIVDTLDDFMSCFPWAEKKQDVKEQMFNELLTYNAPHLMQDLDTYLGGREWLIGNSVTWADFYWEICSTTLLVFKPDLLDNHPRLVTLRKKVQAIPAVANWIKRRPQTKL

Compound | pIC50
O=C1COc2ccc(CN3CCC(NC(=O)c4ccc(-c5cccc(F)c5)nc4)CC3)cc2N1 [Example 497, 6-(3-Fluorophenyl)-N-{1-[(3-oxo-3,4-dihydro-2H-14-benzoxazin-6-yl)methyl]piperidin-4-yl}nicotinamide] | 8.97
COc1ccc(-c2c(CN3CCC(NC(=O)c4ccc(-c5cccc(F)c5)nc4)CC3)cnn2C)cc1 [Example 499, 6-(3-Fluorophenyl)-N-(1-{[5-(4-methoxyphenyl)-1-methyl-1H-pyrazol-4-yl]methyl}piperidin-4-yl)nicotinamide] | 8.79
Cc1cc(C)n2nc(CN3CCC(NC(=O)c4ccc(-c5cccc(F)c5)nc4)CC3)nc2n1 [Example 504, N-{1-[(5,7-Dimethyl[1,2,4]triazolo[1,5-a]pyrimidin-2-yl)methyl]piperidin-4-yl}-6-(3-fluorophenyl)nicotinamide] | 8.55
COc1cccc(-c2c(CN3CCC(NC(=O)c4ccc(-c5cccc(F)c5)nc4)CC3)cnn2C)c1 [Example 506, 6-(3-Fluorophenyl)-N-(1-{[5-(3-methoxyphenyl)-1-methyl-1H-pyrazol-4-yl]methyl}piperidin-4-yl)nicotinamide] | 8.90
Cc1ccccc1-c1c(CN2CCC(NC(=O)c3ccc(-c4cccc(F)c4)nc3)CC2)cnn1C [Example 509, 6-(3-Fluorophenyl)-N-(1-{[1-methyl-5-(2-methylphenyl)-1H-pyrazol-4-yl]methyl}piperidin-4-yl)nicotinamide] | 9.18
O=C(NC1CCN(Cc2n[nH]c3ccc(Cl)cc23)CC1)c1ccc(-c2cccc(F)c2)nc1 [Example 512, N-{1-[(5-Chloro-1H-indazol-3-yl)methyl]piperidin-4-yl}-6-(3-fluorophenyl)nicotinamide] | 9.41
O=C(NC1CCN(Cc2n[nH]c3ccccc23)CC1)c1ccc(-c2cccc(F)c2)nc1 [Example 513, 6-(3-Fluorophenyl)-N-[1-(1H-indazol-3-ylmethyl)piperidin-4-yl]nicotinamide] | 9.44
CCCn1cc(CN2CCC(NC(=O)c3ccc(-c4cccc(F)c4)nc3)CC2)cn1 [Example 516, 6-(3-Fluorophenyl)-N-{1-[(1-propyl-1H-pyrazol-4-yl)methyl]piperidin-4-yl}nicotinamide] | 8.66
CCCn1nccc1CN1CCC(NC(=O)c2ccc(-c3cccc(F)c3)nc2)CC1 [Example 517, 6-(3-Fluorophenyl)-N-{1-[(1-propyl-1H-pyrazol-5-yl)methyl]piperidin-4-yl}nicotinamide] | 9.39
O=C(NC1CCN(Cc2coc3ccccc23)CC1)c1ccc(-c2cccc(F)c2)nc1 [Example 518, N-[1-(1-Benzofuran-3-ylmethyl)piperidin-4-yl]-6-(3-fluorophenyl)nicotinamide] | 9.02
O=C(NC1CCN(Cc2ccc3occc3c2)CC1)c1ccc(-c2cccc(F)c2)nc1 [Example 520, N-[1-(1-Benzofuran-5-ylmethyl)piperidin-4-yl]-6-(3-fluorophenyl)nicotinamide] | 8.71
CC(C)(C)OC(=O)N1[C@@H]2CC[C@H]1CC(NC(=O)c1ccc(-c3cccc(F)c3)nc1)C2 (stereo partly drawn) [Example 522, tert-Butyl (1R,5S)-3-({[6-(3-fluorophenyl)pyridin-3-yl]carbonyl}amino)-8-azabicyclo[3.2.1]octane-8-carboxylate] | 8.18
CC(C)(C)OC(=O)N1CCC(NC(=O)c2ccc(-c3cccc(F)c3)nc2)C(c2ccc(F)cc2)C1 (stereo not drawn) [Example 523, tert-Butyl 3-(4-fluorophenyl)-4-({[6-(3-fluorophenyl)pyridin-3-yl]carbonyl}amino)piperidine-1-carboxylate] | 6.66
CC(CC1CC1)N1CCC(NC(=O)c2ccc(-c3cccc(F)c3)nc2)CC1 (stereo not drawn) [Example 527, N-[1-(2-Cyclopropyl-1-methylethyl)piperidin-4-yl]-6-(3-fluorophenyl)nicotinamide] | 8.55
COc1ccc2c(c1)CCC2N1CCC(NC(=O)c2ccc(-c3cccc(F)c3)nc2)CC1 (stereo not drawn) [Example 528, 6-(3-Fluorophenyl)-N-[1-(5-methoxy-2,3-dihydro-1H-inden-1-yl)piperidin-4-yl]nicotinamide] | 8.60
COc1cccc(C(C)N2CCC(NC(=O)c3ccc(-c4cccc(F)c4)nc3)CC2)c1 (stereo not drawn) [Example 532, 6-(3-Fluorophenyl)-N-{1-[1-(3-methoxyphenyl)ethyl]piperidin-4-yl}nicotinamide] | 8.89

The remaining compounds from weak to strong by pIC50, led by results:

pIC50 | Compound
6.25 | O=C(NC1CCN(C(=O)OCc2ccccc2)CC1)c1ccc(-c2cccc(F)c2)nc1 [Example 521, Benzyl 4-({[6-(3-fluorophenyl)pyridin-3-yl]carbonyl}amino)piperidine-1-carboxylate]
7.12 | CC(=O)N1CCC(NC(=O)c2ccc(-c3cccc(F)c3)nc2)C(c2ccc(F)cc2)C1 (stereo not drawn) [Example 526]
7.83 | O=C(NC1CCNCC1c1ccc(F)cc1)c1ccc(-c2cccc(F)c2)nc1 (stereo not drawn) [Example 525, 6-(3-Fluorophenyl)-N-[3-(4-fluorophenyl)piperidin-4-yl]nicotinamide]
8.56 | Cc1ccc(-c2c(CN3CCC(NC(=O)c4ccc(-c5cccc(F)c5)nc4)CC3)cnn2C)cc1 [Example 510, 6-(3-Fluorophenyl)-N-(1-{[1-methyl-5-(4-methylphenyl)-1H-pyrazol-4-yl]methyl}piperidin-4-yl)nicotinamide]
8.57 | COc1ccccc1C(C)N1CCC(NC(=O)c2ccc(-c3cccc(F)c3)nc2)CC1 (stereo not drawn) [Example 530, 6-(3-Fluorophenyl)-N-{1-[1-(2-methoxyphenyl)ethyl]piperidin-4-yl}nicotinamide]
8.57 | Cc1ccc(CN2CCC(NC(=O)c3ccc(-c4cccc(F)c4)nc3)CC2)c(F)c1 [Example 503, N-[1-(2-Fluoro-4-methylbenzyl)piperidin-4-yl]-6-(3-fluorophenyl)nicotinamide]
8.60 | CC(CC1(C)CC1)N1CCC(NC(=O)c2ccc(-c3cccc(F)c3)nc2)CC1 (stereo not drawn) [Example 529, 6-(3-Fluorophenyl)-N-{1-[1-methyl-2-(1-methylcyclopropyl)ethyl]piperidin-4-yl}nicotinamide]
8.62 | COc1cccc(OC)c1C(C)N1CCC(NC(=O)c2ccc(-c3cccc(F)c3)nc2)CC1 (stereo not drawn) [Example 533, N-{1-[1-(2,6-Dimethoxyphenyl)ethyl]piperidin-4-yl}-6-(3-fluorophenyl)nicotinamide]
8.70 | O=C(NC1CCN(Cc2ccc3cc[nH]c3c2)CC1)c1ccc(-c2cccc(F)c2)nc1 [Example 502, 6-(3-Fluorophenyl)-N-[1-(1H-indol-6-ylmethyl)piperidin-4-yl]nicotinamide]
8.75 | O=CN1CCC(NC(=O)c2ccc(-c3cccc(F)c3)nc2)CC1 [Example 524, 6-(3-Fluorophenyl)-N-(1-formylpiperidin-4-yl)nicotinamide]
8.94 | CC(c1ccccc1)N1CCC(NC(=O)c2ccc(-c3cccc(F)c3)nc2)CC1 (stereo not drawn) [Example 531, 6-(3-Fluorophenyl)-N-[1-(1-phenylethyl)piperidin-4-yl]nicotinamide]
8.96 | COc1ccc(C)cc1CN1CCC(NC(=O)c2ccc(-c3cccc(F)c3)nc2)CC1 [Example 515, 6-(3-Fluorophenyl)-N-[1-(2-methoxy-5-methylbenzyl)piperidin-4-yl]nicotinamide]
8.96 | CC1(CN2CCC(NC(=O)c3ccc(-c4cccc(F)c4)nc3)CC2)CCC1 [Example 511, 6-(3-Fluorophenyl)-N-{1-[(1-methylcyclobutyl)methyl]piperidin-4-yl}nicotinamide]
9.20 | Cn1ncc(CN2CCC(NC(=O)c3ccc(-c4cccc(F)c4)nc3)CC2)c1-c1ccc(F)cc1 [Example 500, 6-(3-Fluorophenyl)-N-(1-{[5-(4-fluorophenyl)-1-methyl-1H-pyrazol-4-yl]methyl}piperidin-4-yl)nicotinamide]
9.24 | COc1cc(CN2CCC(NC(=O)c3ccc(-c4cccc(F)c4)nc3)CC2)ccc1C [Example 496, 6-(3-Fluorophenyl)-N-[1-(3-methoxy-4-methylbenzyl)piperidin-4-yl]nicotinamide]
9.26 | Cn1ncc(CN2CCC(NC(=O)c3ccc(-c4cccc(F)c4)nc3)CC2)c1-c1cccc(F)c1 [Example 507, 6-(3-Fluorophenyl)-N-(1-{[5-(3-fluorophenyl)-1-methyl-1H-pyrazol-4-yl]methyl}piperidin-4-yl)nicotinamide]
9.26 | COc1ccccc1-c1c(CN2CCC(NC(=O)c3ccc(-c4cccc(F)c4)nc3)CC2)cnn1C [Example 508, 6-(3-Fluorophenyl)-N-(1-{[5-(2-methoxyphenyl)-1-methyl-1H-pyrazol-4-yl]methyl}piperidin-4-yl)nicotinamide]
9.35 | Cn1ncc(Cl)c1CN1CCC(NC(=O)c2ccc(-c3cccc(F)c3)nc2)CC1 [Example 519, N-{1-[(4-Chloro-1-methyl-1H-pyrazol-5-yl)methyl]piperidin-4-yl}-6-(3-fluorophenyl)nicotinamide]
9.36 | CS(=O)(=O)Nc1cccc(CN2CCC(NC(=O)c3ccc(-c4cccc(F)c4)nc3)CC2)c1 [Example 501, 6-(3-Fluorophenyl)-N-(1-{3-[(methylsulfonyl)amino]benzyl}piperidin-4-yl)nicotinamide]
9.38 | CC1(CN2CCC(NC(=O)c3ccc(-c4cccc(F)c4)nc3)CC2)CC1 [Example 505, 6-(3-Fluorophenyl)-N-{1-[(1-methylcyclopropyl)methyl]piperidin-4-yl}nicotinamide]
9.46 | O=C1COc2ncc(CN3CCC(NC(=O)c4ccc(-c5cccc(F)c5)nc4)CC3)cc2N1 [Example 514, 6-(3-Fluorophenyl)-N-{1-[(2-oxo-2,3-dihydro-1H-pyrido[2,3-b][1,4]oxazin-7-yl)methyl]piperidin-4-yl}nicotinamide]
9.52 | Cn1ncc(CN2CCC(NC(=O)c3ccc(-c4cccc(F)c4)nc3)CC2)c1-c1ccccc1 [Example 498, 6-(3-Fluorophenyl)-N-{1-[(1-methyl-5-phenyl-1H-pyrazol-4-yl)methyl]piperidin-4-yl}nicotinamide]
9.63 | COc1ccc(CC(C)N2CCC(NC(=O)c3ccc(-c4cccc(F)c4)nc3)CC2)cc1 (stereo not drawn) [Example 534, 6-(3-Fluorophenyl)-N-{1-[2-(4-methoxyphenyl)-1-methylethyl]piperidin-4-yl}nicotinamide]
